These results are taken from patent US20220340875A1, “METHODS OF CULTURING AND/OR EXPANDING STEM CELLS AND/OR LINEAGE COMMITTED PROGENITOR CELLS USING AMIDO COMPOUNDS” (IDEAYA BIOSCIENCES, INC., priority 2018, published 2022).

For this assay, the target named is T1, hAhR (Homo sapiens, UniProt P35869).
T1 construct: Stably integrated DRE-luciferase cell lines were generated by transducing the both cell lines with Cignal XRE luciferase reporter (Qiagen) lentiviral particles; endogenous in cells
T1 sequence (P35869 11-848): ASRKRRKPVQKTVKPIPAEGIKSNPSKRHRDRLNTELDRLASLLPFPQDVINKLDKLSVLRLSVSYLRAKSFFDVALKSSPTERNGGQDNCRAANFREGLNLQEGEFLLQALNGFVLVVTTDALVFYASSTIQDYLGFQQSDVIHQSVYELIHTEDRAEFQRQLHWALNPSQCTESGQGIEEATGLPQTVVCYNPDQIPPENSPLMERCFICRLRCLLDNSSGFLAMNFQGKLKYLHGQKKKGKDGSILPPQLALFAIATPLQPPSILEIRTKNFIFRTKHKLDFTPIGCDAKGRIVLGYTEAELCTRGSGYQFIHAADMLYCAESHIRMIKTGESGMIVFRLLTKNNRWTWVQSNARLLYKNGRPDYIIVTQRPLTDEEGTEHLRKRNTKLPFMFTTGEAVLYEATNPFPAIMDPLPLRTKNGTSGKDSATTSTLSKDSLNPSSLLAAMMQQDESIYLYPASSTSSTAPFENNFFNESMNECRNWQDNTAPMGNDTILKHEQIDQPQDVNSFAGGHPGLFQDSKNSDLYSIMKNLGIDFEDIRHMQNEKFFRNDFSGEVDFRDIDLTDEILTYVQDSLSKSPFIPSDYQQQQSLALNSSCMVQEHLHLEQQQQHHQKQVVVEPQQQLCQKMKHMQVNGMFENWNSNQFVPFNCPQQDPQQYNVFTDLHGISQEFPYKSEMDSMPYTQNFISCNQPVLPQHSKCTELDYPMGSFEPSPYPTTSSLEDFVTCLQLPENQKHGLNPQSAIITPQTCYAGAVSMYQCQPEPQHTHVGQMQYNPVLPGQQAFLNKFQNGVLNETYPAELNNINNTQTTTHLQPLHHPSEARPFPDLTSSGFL
In words: AhR DRE-luciferase reporter transcriptional assay, antagonist mode (TCDD-induced). The assay is classed as cell-based. The note with it: HEPG2 DRE-Luc cells, 3 nM TCDD, 24 hour incubation, relative IC50. In a few lines: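 HepG2 cells carrying a stably integrated DRE-luciferase reporter, in OptiMEM with 0.5% FBS; semi-log compound doses added with 3 nM TCDD, 24 h incubation, firefly luciferase read-out. Percent maximal activity normalised between vehicle ± TCDD; relative IC50 taken as half-reduction between curve plateaus.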
Regarding `Cc1cc(-c2ncc3nc(C(F)(F)F)cc(C)c3n2)ccc1N(C)C(=O)c1ccnn1CC(C)(C)O` [Example 224, 1-(2-hydroxy-2-methylpropyl)-N-methyl-N-(2-methyl-4-(8-methyl-6-(trifluoromethyl)pyrido[3,2-d]pyrimidin-2-yl)phenyl)-1H-pyrazole-5-carboxamide], the IC50 was in the range of 200 to 500 nM.
Compound `Cc1cc(-c2ccc3cncc(C)c3c2)ccc1NC(=O)c1ccnn1C` [Example 061, 1-methyl-N-(2-methyl-4-(4-methylisoquinolin-6-yl)phenyl)-1H-pyrazole-5-carboxamide] returned an IC50 of 500 to 1000 nM.
Take `Cc1cc(-c2ccc3cc(C(F)(F)F)ccc3n2)ccc1N(C)C(=O)c1ccnn1CCO` [Example 209, 1-(2-hydroxyethyl)-N-methyl-N-(2-methyl-4-(6-(trifluoromethyl)quinolin-2-yl)phenyl)-1H-pyrazole-5-carboxamide]: the IC50 was below 200 nM.
`CNC(=O)N(C)c1ccc(-c2ncc3cc(C(F)(F)F)ccc3n2)cc1C` [Example 127, 1,3-dimethyl-1-(2-methyl-4-(6-(trifluoromethyl)quinazolin-2-yl)phenyl)urea] returned an IC50 below 200 nM.
The result for `Cc1cc(-c2ncc3nc(C(F)(F)F)cc(C)c3n2)ccc1NC(=O)c1ccnn1CCO` [Example 172, 1-(2-hydroxyethyl)-N-[2-methyl-4-[8-methyl-6-(trifluoromethyl)pyrido-[3,2-d]pyrimidin-2-yl]phenyl]-1H-pyrazole-5-carboxamide] reads below 200 nM.
The result for `Cc1cc(-c2ncc3nc(C(F)(F)F)cc(C)c3n2)ccc1N(C)C(=O)c1cc(C(N)=O)nn1CC(N)=O` [Example 196, 1-(2-amino-2-oxoethyl)-N5-methyl-N5-(2-methyl-4-(8-methyl-6-(trifluoromethyl)pyrido[3,2-d]pyrimidin-2-yl)phenyl)-1H-pyrazole-3,5-dicarboxamide] reads 1000 to 10000 nM; that for `Cc1cc(-c2cc(C)c3ccccc3n2)ccc1NC(=O)OC(C)(C)C` [Example 015, tert-butyl (2-methyl-4-(4-methylquinolin-2-yl)phenyl)carbamate], 1000 to 10000 nM.
Take `Cc1cc(-c2ncc3cc(F)ccc3n2)ccc1NC(=O)c1ccnn1C` [Example 107, N-(4-(6-fluoroquinazolin-2-yl)-2-methylphenyl)-1-methyl-1H-pyrazole-5-carboxamide]: the IC50 was below 200 nM.
`Cc1cc(-c2ccc3cc(C(F)(F)F)ccc3n2)ccc1NC(=O)c1ccn[nH]1` [Example 204, N-[2-methyl-4-[6-(trifluoromethyl)quinolin-2-yl]phenyl]-1H-pyrazole-5-carboxamide]: the IC50 lay in the range of 1000 to 10000 nM.
`Cc1cc(-c2ncc3cc(C(F)(F)F)ccc3n2)ccc1N(C)C(=O)c1ncncc1C` [Example 124, N,5-dimethyl-N-(2-methyl-4-(6-(trifluoromethyl)quinazolin-2-yl)phenyl)pyrimidine-4-carboxamide] gave an IC50 below 200 nM.
Regarding `Cc1c(-c2ncc3nc(C(F)(F)F)ccc3n2)ccc(N(C)C(=O)c2ccnn2C)c1C` [Example 191, N-(2,3-dimethyl-4-(6-(trifluoromethyl)pyrido[3,2-d]pyrimidin-2-yl)phenyl)-N,1-dimethyl-1H-pyrazole-5-carboxamide], the IC50 lay within 1000 to 10000 nM.
The compound `Cc1cc(-c2ncc3cc(C(F)(F)F)ccc3n2)ccc1NC(=O)c1nn(C)cc1C` [Example 216, 1,4-dimethyl-N-(2-methyl-4-(6-(trifluoromethyl)quinazolin-2-yl)phenyl)-1H-pyrazole-3-carboxamide] had an IC50 below 200 nM.
The result for `Cc1cc(-c2ccc3nc(C(F)(F)F)cc(C)c3n2)ccc1N(C)C(=O)c1ccnn1C` [Example 106, N,1-dimethyl-N-(2-methyl-4-(8-methyl-6-(trifluoromethyl)-1,5-naphthyridin-2-yl)phenyl)-1H-pyrazole-5-carboxamide] reads below 200 nM; that for `Cc1cc(-c2ccc3cc(F)ccc3n2)ccc1NC(=O)c1ncco1` [Example 039, N-(4-(6-fluoroquinolin-2-yl)-2-methylphenyl)oxazole-2-carboxamide], 500 to 1000 nM; that for `Cc1cc(-c2ncc3cc(C(F)(F)F)ccc3n2)ccc1N(C)C(=O)c1cc(C(N)=O)nn1C` [Example 222, N5,1-dimethyl-N5-(2-methyl-4-(6-(trifluoromethyl)quinazolin-2-yl)phenyl)-1H-pyrazole-3,5-dicarboxamide], below 200 nM.
Consider `Cc1cc(-c2ccc3nc(C(F)(F)F)cc(C)c3n2)ccc1N(C)C(=O)c1ccnn1CCO` [Example 223, 1-(2-hydroxyethyl)-N-methyl-N-[2-methyl-4-[8-methyl-6-(trifluoromethyl)-1,5-naphthyridin-2-yl]phenyl]-1H-pyrazole-5-carboxamide], for which the IC50 is below 200 nM.
Consider `Cc1cc(-c2ncc3cc(C(F)(F)F)ccc3n2)ccc1NC(=O)c1cn(C)nc1C` [Example 219, 1,3-dimethyl-N-(2-methyl-4-(6-(trifluoromethyl)quinazolin-2-yl)phenyl)-1H-pyrazole-4-carboxamide], for which the IC50 was below 200 nM.
The result for `Cc1cc(-c2ccc3cc(F)ccc3n2)ccc1NC(=O)c1cccnn1` [Example 031, N-(4-(6-fluoroquinolin-2-yl)-2-methylphenyl)pyridazine-3-carboxamide] reads 500 to 1000 nM.
`CC(=O)Nc1ccc(-c2ccc3cc(F)ccc3n2)cc1C` [Example 040, N-(4-(6-fluoroquinolin-2-yl)-2-methylphenyl)acetamide] showed an IC50 of 200 to 500 nM.
Compound `Cc1cc(-c2ccc3c(ccn3CC(F)(F)F)n2)ccc1NC(=O)c1ccnn1C` [Example 084, 1-methyl-N-(2-methyl-4-(1-(2,2,2-trifluoroethyl)-1H-pyrrolo[3,2-b]pyridin-5-yl)phenyl)-1H-pyrazole-5-carboxamide] registered an IC50 of 1000 to 10000 nM.
In the case of `Cc1cc(NC(=O)c2ccnn2C)cnc1-c1ccc2cc(F)ccc2n1` [Example 046, N-(6-(6-fluoroquinolin-2-yl)-5-methylpyridin-3-yl)-1-methyl-1H-pyrazole-5-carboxamide], the IC50 lay within 500 to 1000 nM.
For the compound `Cc1cc(-c2ccc3cc(C(F)(F)F)ccc3n2)ccc1N(C)C(=O)C(F)(F)F` [Example 081, 2,2,2-Trifluoro-N-methyl-N-(2-methyl-4-(6-(trifluoromethyl)quinolin-2-yl)phenyl)acetamide], the IC50 fell in the range of 1000 to 10000 nM.
`Cc1cc(-c2ccc3cc([N+](=O)[O-])ccc3n2)ccc1NC(=O)c1ccnn1C` [Example 076, 1-methyl-N-(2-methyl-4-(6-nitroquinolin-2-yl)phenyl)-1H-pyrazole-5-carboxamide] gave an IC50 below 200 nM.
The value for `Cn1nccc1C(=O)Nc1ccc(-c2ncc3nc(C(F)(F)F)ccc3n2)cc1F` [Example 137, N-(2-fluoro-4-(6-(trifluoromethyl)pyrido[3,2-d]pyrimidin-2-yl)phenyl)-1-methyl-1H-pyrazole-5-carboxamide] was below 200 nM; that for `COc1cc(C(=O)N(C)c2ccc(-c3ncc4cc(C(F)(F)F)ccc4n3)cc2C)ccn1` [Example 143, 2-Methoxy-N-methyl-N-(2-methyl-4-(6-(trifluoromethyl)quinazolin-2-yl)phenyl)isonicotinamide] was below 200 nM.
The value for `Cn1nccc1C(=O)Nc1ccc(-c2ncc3cc(C(F)(F)F)ccc3n2)cc1` [Example 220, 1-methyl-N-(4-(6-(trifluoromethyl)quinazolin-2-yl)phenyl)-1H-pyrazole-5-carboxamide] was 1000 to 10000 nM.
Compound `Cc1cc(-c2ccc3cc(C(F)(F)F)cc(C)c3n2)ccc1N(C)C(=O)c1ccnn1C` [Example 202, N,1-dimethyl-N-(2-methyl-4-(8-methyl-6-(trifluoromethyl)quinolin-2-yl)phenyl)-1H-pyrazole-5-carboxamide] came in with an IC50 below 200 nM.
`Cc1cc(-c2ncc3nc(C(F)(F)F)cc(C)c3n2)ccc1NC(=O)c1ccnn1CC(N)=O` [Example 170, 1-(2-amino-2-oxoethyl)-N-(2-methyl-4-(8-methyl-6-(trifluoromethyl)-pyrido[3,2-d]pyrimidin-2-yl)phenyl)-1H-pyrazole-5-carboxamide]: the IC50 is below 200 nM.
Take `Cc1cc(-c2ccc3cc(N)ccc3n2)ccc1NC(=O)c1ccnn1C` [Example 075, N-(4-(6-aminoquinolin-2-yl)-2-methylphenyl)-1-methyl-1H-pyrazole-5-carboxamide]: the IC50 fell in the range of 1000 to 10000 nM.
Take `Cc1cc(-c2ncc3cc(C(F)(F)F)ccc3n2)ccc1N(C)C(=O)c1ncc[nH]1` [Example 132, N-methyl-N-(2-methyl-4-(6-(trifluoromethyl)quinazolin-2-yl)phenyl)-1H-imidazole-2-carboxamide]: the IC50 was below 200 nM.
